# Earlier results in patent US8329229B2, “Steam distillation of catmint plants” (E I du Pont de Nemours and Company, priority 2006, dated 2012).
# Tested on: insect
# Settings: see U.S. Ser. No. 05/112,166
compound,measurement,value
CC1COC(=O)C2C(C)CCC12 (stereo not shown) [dihydronepetalactone],insect repellency,exhibits insect repellency
